Consider 15 molecules from ChEMBL document CHEMBL3991601, “The target landscape of clinical kinase drugs” (Science, 2017).

The Kd is the equilibrium constant for the complex coming apart.

In experiment [1] the target is T1, Bone morphogenetic protein receptor type-2 (Homo sapiens, UniProt Q13873).
T1 sequence (Q13873 whole entry): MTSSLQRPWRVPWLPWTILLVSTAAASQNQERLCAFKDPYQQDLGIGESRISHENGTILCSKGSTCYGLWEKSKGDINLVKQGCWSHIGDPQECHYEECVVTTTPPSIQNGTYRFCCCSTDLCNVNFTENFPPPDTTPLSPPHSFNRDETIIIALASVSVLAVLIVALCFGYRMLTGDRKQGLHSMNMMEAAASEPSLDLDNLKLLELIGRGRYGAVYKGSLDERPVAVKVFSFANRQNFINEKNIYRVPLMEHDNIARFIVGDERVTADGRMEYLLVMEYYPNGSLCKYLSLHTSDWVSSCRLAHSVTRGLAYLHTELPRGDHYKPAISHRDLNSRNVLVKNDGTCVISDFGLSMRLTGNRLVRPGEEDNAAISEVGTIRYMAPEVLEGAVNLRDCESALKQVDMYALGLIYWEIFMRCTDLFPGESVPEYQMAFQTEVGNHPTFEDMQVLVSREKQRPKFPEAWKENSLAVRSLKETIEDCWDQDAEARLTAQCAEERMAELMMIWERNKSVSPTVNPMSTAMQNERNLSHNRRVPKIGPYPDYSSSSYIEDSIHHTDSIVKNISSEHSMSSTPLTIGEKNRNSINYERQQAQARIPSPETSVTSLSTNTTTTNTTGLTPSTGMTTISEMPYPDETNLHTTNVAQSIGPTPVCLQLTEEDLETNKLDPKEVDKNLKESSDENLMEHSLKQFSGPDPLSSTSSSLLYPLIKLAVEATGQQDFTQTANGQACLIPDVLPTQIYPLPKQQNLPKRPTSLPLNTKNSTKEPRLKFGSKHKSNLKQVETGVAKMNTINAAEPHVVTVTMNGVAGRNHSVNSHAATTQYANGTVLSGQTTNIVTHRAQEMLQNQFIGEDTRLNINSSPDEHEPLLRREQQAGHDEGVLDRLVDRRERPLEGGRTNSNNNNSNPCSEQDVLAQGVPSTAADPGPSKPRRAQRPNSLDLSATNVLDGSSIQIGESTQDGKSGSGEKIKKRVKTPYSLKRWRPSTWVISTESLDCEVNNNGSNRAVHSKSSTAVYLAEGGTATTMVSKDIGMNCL

In experiment [2] the target is Mitogen-activated protein kinase 7 (Homo sapiens, UniProt Q13164).
For experiment [3], the target named is Tyrosine-protein kinase Lyn (Homo sapiens, UniProt P07948).
Experiment [4] addresses Tyrosine-protein kinase SYK (Homo sapiens, UniProt P43405).
For experiment [5], the target named is T2, Ras-related protein Rab-27A (Homo sapiens, UniProt P51159).
T2 sequence (P51159 whole entry): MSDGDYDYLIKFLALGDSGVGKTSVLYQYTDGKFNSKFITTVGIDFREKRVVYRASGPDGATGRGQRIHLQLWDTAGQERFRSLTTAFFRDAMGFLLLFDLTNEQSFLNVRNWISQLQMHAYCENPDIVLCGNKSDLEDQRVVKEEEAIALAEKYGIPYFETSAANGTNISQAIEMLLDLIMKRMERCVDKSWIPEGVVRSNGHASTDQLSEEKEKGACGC

The next experiment addresses T3, dCTP pyrophosphatase 1 (Homo sapiens, UniProt Q9H773).
T3 sequence (Q9H773 whole entry): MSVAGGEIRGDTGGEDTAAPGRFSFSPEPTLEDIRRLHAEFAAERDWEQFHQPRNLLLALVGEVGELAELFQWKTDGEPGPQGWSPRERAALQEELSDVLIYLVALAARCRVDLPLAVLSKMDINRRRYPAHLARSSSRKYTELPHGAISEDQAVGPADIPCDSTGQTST

Experiment [6] deals with T4, Dual specificity mitogen-activated protein kinase kinase 6 (Homo sapiens, UniProt P52564).
T4 sequence (P52564 whole entry): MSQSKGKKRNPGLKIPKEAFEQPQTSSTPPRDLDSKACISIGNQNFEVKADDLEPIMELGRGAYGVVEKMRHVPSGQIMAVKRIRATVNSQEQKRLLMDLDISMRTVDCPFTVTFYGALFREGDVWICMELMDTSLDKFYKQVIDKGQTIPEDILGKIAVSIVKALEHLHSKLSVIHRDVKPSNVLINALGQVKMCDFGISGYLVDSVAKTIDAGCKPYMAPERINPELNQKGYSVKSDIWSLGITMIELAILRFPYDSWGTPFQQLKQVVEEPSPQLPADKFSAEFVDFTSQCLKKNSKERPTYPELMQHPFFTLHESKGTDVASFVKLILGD

Experiment [7] concerns the target Insulin-like growth factor 1 receptor (Homo sapiens, UniProt P08069).
The target in experiment [8] is T5, Peroxisomal acyl-coenzyme A oxidase 1 (Homo sapiens, UniProt Q15067).
T5 sequence (Q15067 whole entry): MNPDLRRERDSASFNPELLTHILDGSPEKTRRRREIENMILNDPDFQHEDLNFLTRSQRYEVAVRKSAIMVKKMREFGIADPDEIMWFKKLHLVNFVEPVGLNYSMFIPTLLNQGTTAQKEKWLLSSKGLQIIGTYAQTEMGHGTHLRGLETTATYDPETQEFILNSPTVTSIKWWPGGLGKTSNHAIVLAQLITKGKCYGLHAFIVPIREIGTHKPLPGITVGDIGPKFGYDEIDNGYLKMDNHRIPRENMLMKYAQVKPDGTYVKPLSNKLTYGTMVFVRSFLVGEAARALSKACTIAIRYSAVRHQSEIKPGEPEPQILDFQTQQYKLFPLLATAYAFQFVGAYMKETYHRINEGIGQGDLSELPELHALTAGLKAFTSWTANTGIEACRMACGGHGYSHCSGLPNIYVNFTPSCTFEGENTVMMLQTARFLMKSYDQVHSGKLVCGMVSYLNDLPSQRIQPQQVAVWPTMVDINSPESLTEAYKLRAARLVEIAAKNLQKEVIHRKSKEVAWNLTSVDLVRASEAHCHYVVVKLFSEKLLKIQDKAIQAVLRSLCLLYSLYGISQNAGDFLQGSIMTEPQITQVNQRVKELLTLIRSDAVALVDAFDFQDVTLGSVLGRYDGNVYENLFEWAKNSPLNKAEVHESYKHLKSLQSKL

Experiment [9] deals with Interleukin-1 receptor-associated kinase 1 (Homo sapiens, UniProt P51617).

Structures are written as SMILES. Activity calls are given as the source filed them.
Also: in the data inactive means no Kd found up to 30 µM.

Sequence of Insulin-like growth factor 1 receptor (P08069 31-736 limits assumed): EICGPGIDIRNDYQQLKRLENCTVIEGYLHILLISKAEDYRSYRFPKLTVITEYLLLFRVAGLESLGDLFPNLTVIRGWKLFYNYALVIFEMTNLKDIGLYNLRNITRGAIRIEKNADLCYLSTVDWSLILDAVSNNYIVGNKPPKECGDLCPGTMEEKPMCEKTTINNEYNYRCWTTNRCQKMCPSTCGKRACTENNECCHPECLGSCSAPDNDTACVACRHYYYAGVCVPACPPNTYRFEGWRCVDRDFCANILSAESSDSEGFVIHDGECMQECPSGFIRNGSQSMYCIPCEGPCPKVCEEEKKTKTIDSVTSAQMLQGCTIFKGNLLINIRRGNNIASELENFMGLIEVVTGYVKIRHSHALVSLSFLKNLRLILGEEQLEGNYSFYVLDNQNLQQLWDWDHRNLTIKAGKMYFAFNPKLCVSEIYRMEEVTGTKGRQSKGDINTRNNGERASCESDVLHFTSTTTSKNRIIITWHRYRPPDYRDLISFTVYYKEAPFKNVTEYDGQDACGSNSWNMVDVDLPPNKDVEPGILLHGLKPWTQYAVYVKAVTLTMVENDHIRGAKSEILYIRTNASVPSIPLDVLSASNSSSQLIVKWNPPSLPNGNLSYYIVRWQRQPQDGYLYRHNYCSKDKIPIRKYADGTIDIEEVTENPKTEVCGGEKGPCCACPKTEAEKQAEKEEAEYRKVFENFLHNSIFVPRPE
Sequence of Insulin-like growth factor 1 receptor (P08069 741-1367 limits assumed): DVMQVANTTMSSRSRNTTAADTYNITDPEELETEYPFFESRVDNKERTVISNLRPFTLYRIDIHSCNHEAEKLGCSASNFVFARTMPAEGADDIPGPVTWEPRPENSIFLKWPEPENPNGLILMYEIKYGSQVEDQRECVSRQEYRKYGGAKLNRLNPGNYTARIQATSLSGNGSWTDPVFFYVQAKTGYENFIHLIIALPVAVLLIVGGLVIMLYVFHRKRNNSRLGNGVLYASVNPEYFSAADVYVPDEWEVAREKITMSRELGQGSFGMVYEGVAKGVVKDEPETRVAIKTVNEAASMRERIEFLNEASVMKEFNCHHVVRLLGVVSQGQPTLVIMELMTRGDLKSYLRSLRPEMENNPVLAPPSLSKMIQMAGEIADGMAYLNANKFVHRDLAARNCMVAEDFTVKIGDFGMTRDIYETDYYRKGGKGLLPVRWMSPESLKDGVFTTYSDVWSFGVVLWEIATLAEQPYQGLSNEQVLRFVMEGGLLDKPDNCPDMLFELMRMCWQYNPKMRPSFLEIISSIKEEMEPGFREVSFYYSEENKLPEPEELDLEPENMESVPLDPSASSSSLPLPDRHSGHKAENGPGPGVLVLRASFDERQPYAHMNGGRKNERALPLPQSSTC
Sequence of Mitogen-activated protein kinase 7 (Q13164 whole entry): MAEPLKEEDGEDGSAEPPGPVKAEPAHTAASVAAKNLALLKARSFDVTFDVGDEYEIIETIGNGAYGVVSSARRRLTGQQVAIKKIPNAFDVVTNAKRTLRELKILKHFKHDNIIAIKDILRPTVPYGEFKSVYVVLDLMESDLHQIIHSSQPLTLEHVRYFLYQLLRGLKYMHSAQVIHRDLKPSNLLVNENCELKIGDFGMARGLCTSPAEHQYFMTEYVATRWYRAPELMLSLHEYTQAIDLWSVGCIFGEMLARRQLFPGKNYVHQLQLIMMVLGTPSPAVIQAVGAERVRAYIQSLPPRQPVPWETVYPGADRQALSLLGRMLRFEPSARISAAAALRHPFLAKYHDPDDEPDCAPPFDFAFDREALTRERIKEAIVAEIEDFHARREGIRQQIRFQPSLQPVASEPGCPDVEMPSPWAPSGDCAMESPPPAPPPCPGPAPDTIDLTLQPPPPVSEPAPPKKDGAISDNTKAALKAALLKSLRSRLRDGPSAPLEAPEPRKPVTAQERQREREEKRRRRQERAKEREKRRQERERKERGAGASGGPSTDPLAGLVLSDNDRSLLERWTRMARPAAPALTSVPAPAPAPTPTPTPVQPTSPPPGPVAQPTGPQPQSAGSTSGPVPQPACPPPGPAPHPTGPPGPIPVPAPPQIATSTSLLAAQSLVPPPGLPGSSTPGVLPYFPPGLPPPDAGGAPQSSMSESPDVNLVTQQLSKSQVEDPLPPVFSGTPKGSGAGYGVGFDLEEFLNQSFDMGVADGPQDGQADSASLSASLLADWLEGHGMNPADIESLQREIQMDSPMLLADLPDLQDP
Sequence of Tyrosine-protein kinase Lyn (P07948 whole entry): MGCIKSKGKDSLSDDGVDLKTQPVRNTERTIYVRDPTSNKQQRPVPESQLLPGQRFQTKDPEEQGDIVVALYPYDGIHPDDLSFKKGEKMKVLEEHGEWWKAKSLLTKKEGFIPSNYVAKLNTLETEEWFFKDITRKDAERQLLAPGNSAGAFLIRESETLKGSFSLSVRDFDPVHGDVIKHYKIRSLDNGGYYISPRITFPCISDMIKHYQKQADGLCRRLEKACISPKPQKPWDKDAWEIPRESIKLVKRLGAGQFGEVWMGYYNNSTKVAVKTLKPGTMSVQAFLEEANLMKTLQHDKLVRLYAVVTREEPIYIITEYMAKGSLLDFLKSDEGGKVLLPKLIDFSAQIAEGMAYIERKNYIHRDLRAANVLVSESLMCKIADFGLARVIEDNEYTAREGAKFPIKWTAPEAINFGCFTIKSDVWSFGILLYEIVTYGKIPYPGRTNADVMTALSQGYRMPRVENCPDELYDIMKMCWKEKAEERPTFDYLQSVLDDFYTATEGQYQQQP
Sequence of Interleukin-1 receptor-associated kinase 1 (P51617 whole entry): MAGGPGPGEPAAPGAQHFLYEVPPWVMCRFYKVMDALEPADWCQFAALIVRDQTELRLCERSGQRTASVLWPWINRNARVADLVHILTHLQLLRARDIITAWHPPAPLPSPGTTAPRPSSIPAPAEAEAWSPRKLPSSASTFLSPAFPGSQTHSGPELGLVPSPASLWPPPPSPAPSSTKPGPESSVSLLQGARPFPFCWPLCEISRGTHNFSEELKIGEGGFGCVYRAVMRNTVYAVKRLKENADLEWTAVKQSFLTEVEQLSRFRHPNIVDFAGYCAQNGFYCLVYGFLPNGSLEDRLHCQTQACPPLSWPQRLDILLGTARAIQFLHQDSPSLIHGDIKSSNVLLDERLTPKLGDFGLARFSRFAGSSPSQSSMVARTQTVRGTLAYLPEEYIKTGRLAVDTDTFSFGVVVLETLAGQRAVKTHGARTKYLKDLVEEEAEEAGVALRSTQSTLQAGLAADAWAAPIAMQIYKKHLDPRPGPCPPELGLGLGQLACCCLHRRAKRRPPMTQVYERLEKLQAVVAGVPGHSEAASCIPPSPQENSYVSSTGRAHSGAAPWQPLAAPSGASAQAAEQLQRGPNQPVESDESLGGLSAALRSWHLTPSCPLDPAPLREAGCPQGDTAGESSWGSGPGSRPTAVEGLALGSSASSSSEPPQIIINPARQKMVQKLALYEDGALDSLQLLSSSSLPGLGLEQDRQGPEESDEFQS

As to `CC(=O)c1cnc2ccc(-c3cc(Cl)c(O)c(Cl)c3)nc2c1N[C@H]1CC[C@H](CN(C)C)CC1`, the Kd in [1] is > 30 µM (inactive); in [2] it was > 30 µM (inactive); in [3], 0.121 µM (active); in experiment [4], > 30 µM (inactive); in experiment [5], > 30 µM (inactive); on dCTP pyrophosphatase 1, > 30 µM (inactive). Further, the results for the equilibrium dissociation constant (Kd) in experiment [6] and in [7] were 4.56 µM (active) and > 30 µM (inactive), respectively.

For the molecule `COCc1c(-c2ccc(NC(=O)Nc3cc(C(F)(F)F)ccc3F)c(F)c2)c2c(N)ncnn2c1CN1CCOCC1`, the Kd in experiment [1], in experiment [2], in experiment [8], in experiment [3], in experiment [4] and in experiment [9] was > 30 µM (inactive) throughout. In addition, the Kd (in [5]; on dCTP pyrophosphatase 1; in [6]; in experiment [7]) was > 30 µM (inactive) in each case.

As for `CNC(=O)c1ccccc1Sc1ccc2c(/C=C/c3ccccn3)n[nH]c2c1` [AXITINIB], the Kd (in [8]; in experiment [5]; at dCTP pyrophosphatase 1) was > 30 µM (inactive) in each case.

Turning to `COCC(=O)NC/C=C/c1ccc2ncnc(Nc3ccc(Oc4ccc(C)nc4)c(C)c3)c2c1` [CP-724714], the Kd in experiment [1], in experiment [2], in experiment [3], in experiment [4], in experiment [9] and in [5] was > 30 µM (inactive) in each case. Also, the Kd (on dCTP pyrophosphatase 1; in [6]; in [7]) was > 30 µM (inactive) each time.

As for `CC(C)(C)c1nc(-c2cccc(NS(=O)(=O)c3c(F)cccc3F)c2F)c(-c2ccnc(N)n2)s1` [DABRAFENIB], the Kd (in experiment [1]; in experiment [2]; in [8]; in experiment [4]; in experiment [5]; at dCTP pyrophosphatase 1) was > 30 µM (inactive) throughout. Also, the Kd in [6] is > 30 µM (inactive).

Take `Cn1cc(C2=C(c3cn(C4CCN(Cc5ccccn5)CC4)c4ccccc34)C(=O)NC2=O)c2ccccc21` [ENZASTAURIN]: the Kd (in [5]; on dCTP pyrophosphatase 1) was > 30 µM (inactive) each time.

Take `C[C@@H](Oc1cc(-n2cnc3ccc(CN4CCN(C)CC4)cc32)sc1C(N)=O)c1ccccc1C(F)(F)F` [GSK-461364]: the Kd (in experiment [8]; in experiment [5]; at dCTP pyrophosphatase 1) was > 30 µM (inactive) throughout.

With `NC1(c2ccc(-c3nc4ccn5c(=O)[nH]nc5c4cc3-c3ccccc3)cc2)CCC1` [MK-2206], the Kd in experiment [1], in experiment [2], in experiment [3], in [4], in experiment [9] and in experiment [5] was > 30 µM (inactive) throughout. In addition, the Kd (on dCTP pyrophosphatase 1; in [6]; in experiment [7]) was > 30 µM (inactive) in each case.

With `COc1ncc(-c2ccc3nccc(-c4ccnnc4)c3c2)cc1NS(=O)(=O)c1ccc(F)cc1F` [OMIPALISIB], the Kd in experiment [1], in experiment [2], in [3], in experiment [4], in experiment [9] and in experiment [5] was > 30 µM (inactive) throughout. Also, the Kd (at dCTP pyrophosphatase 1; in [6]; in [7]) was > 30 µM (inactive) throughout.

For the molecule `NC(=O)c1c(OCc2c(F)cc(Br)cc2F)nsc1NC(=O)NCCCCN1CCCC1` [OSI-632], the Kd (in experiment [1]; in experiment [8]; in [5]; on dCTP pyrophosphatase 1; in [6]) was > 30 µM (inactive) in each case.

As to `CNC(=O)c1cc(Oc2ccc(NC(=O)Nc3cc(C(C)(C)C)nn3-c3ccc4ncccc4c3)c(F)c2)ccn1` [REBASTINIB], the Kd was > 30 µM (inactive) in experiment [1]; > 30 µM (inactive) in experiment [2]; > 30 µM (inactive) in [8]; 1.83 µM (active) in experiment [4]; > 30 µM (inactive) in experiment [5]; > 30 µM (inactive) on dCTP pyrophosphatase 1. Moreover, the Kd in experiment [6] and in [7] was > 30 µM (inactive) each time.

As for `O=C(NOCCO)c1cc(CN2OCCCC2=O)c(F)c(F)c1Nc1ccc(I)cc1F` [RO-4987655], the Kd (in experiment [5]; on dCTP pyrophosphatase 1) was > 30 µM (inactive) in each case.

Consider `N#CC[C@H](C1CCCC1)n1cc(-c2ncnc3[nH]ccc23)cn1` [RUXOLITINIB], for which the Kd (in experiment [8]; in [5]; at dCTP pyrophosphatase 1) was > 30 µM (inactive) each time.

For `C[C@@H](NC(=O)c1ncnc(N)c1Cl)c1ncc(C(=O)Nc2cc(C(F)(F)F)c(Cl)cn2)s1` [TOVORAFENIB], the Kd in experiment [1], in experiment [2], in experiment [3], in experiment [4], in experiment [9] and in experiment [5] was > 30 µM (inactive) throughout. For the same molecule, the Kd (on dCTP pyrophosphatase 1; in experiment [6]; in experiment [7]) was > 30 µM (inactive) each time.

As for `Cc1cc(Nc2ncnc3ccc(NC4=NC(C)(C)CO4)cc23)ccc1Oc1ccn2ncnc2c1` [TUCATINIB], the Kd in experiment [1], in [2], in experiment [3], in experiment [4], in experiment [9] and in experiment [5] was > 30 µM (inactive) each time. The Kd (at dCTP pyrophosphatase 1; in experiment [6]; in [7]) was > 30 µM (inactive) in each case.
